Data from publication PMC12062019, “Therapeutic effects of medicinal and food-based traditional herbal couples on type 2 diabetes mellitus based on pharmacodynamics and pharmacokinetics” (Frontiers in Pharmacology, 2025).

Legend:
Caco-2 cells = assay: CCK-8 cell viability, Caco-2; conditions: Caco-2, 24 h, concentrations up to 65 μg/mL
Procedure: (§1) HT29 cells were grown in McCoy’s 5A medium containing 10% fetal bovine serum, 1% non-essential amino acids, and 1% penicillin-streptomycin, and other conditions were the same as those for Caco-2 cells culture, with the medium being changed every other day. […] They were incubated at 37°C for 24 h to allow cell adhesion. […] After this, the medium was removed and the cells were co-incubated with 10 μL of CCK-8 solution for 4 h. The absorbance values (OD) were measured at 450 nm using a SpectraMax 190 Enzyme Marker. The blank group consisted of wells that were not inoculated with cells, and the control group included wells containing cells but not exposed to the sample solution. Each group was performed in six replicates. Cell viability was calculated using the following formula: Cell activity%=Experimental Group OD value−Blank Group OD value/Control Group OD value−Blank Group OD value×100%

[1] = set-up: method as in Wang et al., 2020; conditions: poor lipid and water solubility; ref Wang et al., 2020; cited from earlier work
HT29 cells = assay: CCK-8 cell viability, HT29; conditions: HT29, 24 h, concentrations up to 65 μg/mL
Procedure: as §1

gut flora of rats = assay: 16s rDNA sequencing of gut flora of rats; format: in vivo, rat; conditions: T2DM rats
T2DM rats = assay: Blood glucose and body weight in high-fat diet/STZ-induced T2DM rat model; format: in vivo; conditions: gavage once daily, weight first decreased then increased
Procedure: The T2DM rat model was developed by intraperitoneal injection of streptozotocin (STZ). 60 male SD rats were acclimatised and reared for 1 week, then blood glucose and body weight were measured, and the rats were randomly divided into 10 in the normal group and 50 in the modelling group according to blood glucose and body weight. The T2DM rat was fed with high-fat chow for 4 weeks, and at the end of the 4 weeks, the rats were fasted for 12 h without food or water, and were injected with a one-time intraperitoneal injection of 35 mg/kg of 1% STZ solution. The normal group was fed with normal chow, and was given free access to drinking water, and was injected intraperitoneally with the same dose of citrate-sodium citrate buffer as that of the T2DM rat. The blood was collected from the tail vein for fasting blood glucose (FBG) measurement after 72 h. FBG of 16.7 mmol/L was considered successful in T2DM model replication. The T2DM rat model was successfully replicated.
For better drug delivery, we used a rotary evaporator to concentrate the CR-PLR decoction, CR decoction and PLR decotion to crude drug (1 g/mL), respectively. […]

[2] = Genus level, compared to the model group

Compound	relative cell viability (Caco-2 cells)	BCS classification system class [1]	relative cell viability (HT29 cells)	percentage of Lachnospiraceae flora (gut flora of rats; Family level) [%]	percentage of Lactobacillaceae flora (gut flora of rats; Family level) [%]	percentage of Ruminococcaceae flora (gut flora of rats; Family level) [%]	percentage of Ligilactobacillus flora (gut flora of rats; Genus level) [%]	percentage of lactobacilli flora (gut flora of rats; Genus level) [%]	percentage of Akkermansia flora (gut flora of rats; [2])	percentage of Ruminococcus flora (gut flora of rats; [2])	number of independent OTUs (gut flora of rats; gut flora, Venn plot)	weeks of administration after which body weight increased (T2DM rats) [weeks]
O=c1c(-c2ccc(O)cc2)coc2c([C@@H]3O[C@H](CO)[C@@H](O)[C@H](O)[C@H]3O)c(O)ccc12 [PUR, Puerarin]	above 90%	class IV	above 90%	–	–	–	–	–	–	–	–	–
CN(C)C(=N)N=C(N)N [metformin]	–	–	–	8.91	8.88	9.47	3.69	4.68	increased	increased	2051	4
